Measured values reported in US11524966B1 (Valo Early Discovery, Inc., priority 2017, dated 2022).

molecular target: T1, USP28 (His-tagged USP28-FL-mammalian) (Homo sapiens, UniProt Q96RU2); experiment: Ubiquitin-Rhodamine 110 Assay for USP28 Activity, Example A-1(a); format: biochemical; details: Ubiquitin-Rhodamine 110 assay, Example A-1(a); read-out: USP28 A-1(a) IC50 range
T1 construct: Expression of USP28 (1-1077)-TEV-6*His (pTT5 vector); made in house; host or cells: Expi293f cells (pTT5 vector)
T1 sequence (Q96RU2 1-1077): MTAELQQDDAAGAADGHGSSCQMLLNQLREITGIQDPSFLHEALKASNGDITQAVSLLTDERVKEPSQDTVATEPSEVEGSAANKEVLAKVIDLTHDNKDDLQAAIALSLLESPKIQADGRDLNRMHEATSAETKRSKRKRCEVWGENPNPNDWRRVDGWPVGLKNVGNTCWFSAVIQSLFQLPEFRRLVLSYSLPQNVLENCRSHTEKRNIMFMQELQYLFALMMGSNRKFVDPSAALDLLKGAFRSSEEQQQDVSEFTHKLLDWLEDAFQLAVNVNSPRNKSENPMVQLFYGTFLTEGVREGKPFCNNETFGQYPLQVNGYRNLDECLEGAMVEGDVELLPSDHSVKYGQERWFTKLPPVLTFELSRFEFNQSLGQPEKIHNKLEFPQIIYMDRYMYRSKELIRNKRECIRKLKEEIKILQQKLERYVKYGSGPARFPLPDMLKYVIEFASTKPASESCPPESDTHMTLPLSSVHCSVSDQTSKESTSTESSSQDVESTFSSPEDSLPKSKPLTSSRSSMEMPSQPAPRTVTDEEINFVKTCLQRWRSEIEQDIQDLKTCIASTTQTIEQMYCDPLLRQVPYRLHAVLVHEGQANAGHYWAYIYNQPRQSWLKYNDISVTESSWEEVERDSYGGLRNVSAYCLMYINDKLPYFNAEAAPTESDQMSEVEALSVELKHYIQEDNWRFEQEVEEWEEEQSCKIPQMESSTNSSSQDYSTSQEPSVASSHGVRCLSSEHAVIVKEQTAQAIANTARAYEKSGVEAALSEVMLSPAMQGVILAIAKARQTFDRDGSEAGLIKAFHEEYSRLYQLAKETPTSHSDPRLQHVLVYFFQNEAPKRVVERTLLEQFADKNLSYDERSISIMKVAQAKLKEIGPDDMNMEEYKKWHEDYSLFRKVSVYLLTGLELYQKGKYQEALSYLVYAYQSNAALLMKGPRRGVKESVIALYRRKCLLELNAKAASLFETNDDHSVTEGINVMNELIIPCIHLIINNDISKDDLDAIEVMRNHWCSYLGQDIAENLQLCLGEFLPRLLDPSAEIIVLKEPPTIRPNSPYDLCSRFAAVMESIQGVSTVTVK
Description: Example A-1(a): Biochemical Assay: Ubiquitin-Rhodamine 110 Assay for USP28 Activity
The assay was performed in a final volume of 9 μL in assay buffer containing 20 mM Tris-HCl (pH 8.0, (1M Tris-HCl, pH 8.0 solution; Corning 46-031-CM)), 3 mM BME (2-Mercaptoethanol; Sigma 63689-25ML-F), 0.03% BGG (0.22 μM filtered, Sigma, G7516-25G), and 0.01% Triton X-100 (Sigma, T9284-10L). Nanoliter quantities of 10-point, 3-fold serial dilution in DMSO was pre-dispensed into 1536 assay plates (Corning, #3724BC) for a final test concentration of 25 μM to 1.3 nM, top to lowest dose, respectively. Enzyme USP28, construct His-tagged USP28-FL-mammalian, (protein expression and purification procedure described below). Concentration and incubation times were optimized for the maximal signal-to-background while maintaining initial velocity conditions at a fixed substrate concentration. The final concentration of the enzyme in the assay was 75 μM. Final substrate (Ub-Rh110; Ubiquitin-Rhodamine 110, UbiQ-126) concentration was 25 nM with [Ub-Rh110]<<Km. 3 μL of 2× enzyme was added to assay plates (pre-stamped with compound) preincubated with […] for 30 minutes and then 3 μL of 2×Ub-Rh110 was added to assay plates. Plates were incubated for 45 minutes at room temperature before addition of 3 μL of stop solution (final concentration of 10 mM citric acid (Sigma, 251275-500G)). Fluorescence was read on the Envision (Excitation at 485 nm and Emission at 535 nm; Perkin Elmer) or on the PheraSTAR (Excitation at 485 nm and Emission at 535 nm; BMG Labtech).
Procedure for the Protein Expression and Purification for Construct His-Tagged USP28-FL-Mammalian
Expression of USP28 (1-1077)-TEV-6*His (pTT5 vector) was carried out in Expi293f cells (sequence derived from uniprot ID: Q96RU2-1). Cells were re-suspended in lysis buffer B 50 mM Bicine, pH 8.0, 20 mM NaCl, 5% glycerol, 0.1% CHAPS, 5 mM β-ME, 1 mM PMSF, 1 ug/ml Leupeptin, 1 ug/ml Pepstatin) and lysed by sonication. Insoluble material was removed by centrifugation and the supernatant was loaded onto a Ni-NTA column (GE Healthcare) equilibrated with Ni Buffer A (50 mM Bicine, pH 8.0, 20 mM NaCl, 5% glycerol, 0.1% CHAPS, 5 mM β-ME.) and washed with Ni Buffer A+20 mM imidazole until A280 reached baseline. The protein was eluted with Ni Buffer B (50 mM Bicine, pH 8.0, 20 mM NaCl, 5% glycerol, 0.1% CHAPS, 5 mM β-ME, 300 mM imidazole.). The protein was further purified using a Superdex™ 200 10/300 GL column (GE Healthcare) equilibrated with 50 mM Bicine, pH 8.0, 20 mM NaCl, 5% glycerol, 0.1% CHAPS, 5 mM β-ME. The protein was concentrated to 2.5 mg ml^−1, flash-frozen in liquid N2 and stored at −80° C.
For assay formats Example A-1(a), A-1(b), and A-2, data were reported as percent inhibition compared with control wells based on the following equation: % inh=1−((FLU−AveLow)/(AveHigh−AveLow)) where FLU=measured Fluorescence, AveLow=average Fluorescence of no enzyme control (n=16), and AveHigh=average Fluorescence of DMSO control (n=16). IC50 values were determined by curve fitting of the standard 4 parameter logistic fitting algorithm included in the Activity Base software package: IDBS XE Designer Model 205. Data is fitted using the Levenburg Marquardt algorithm.

Row | SMILES | IC50 [µM]
1 | CN[C@@H]1CN(c2ccc3c(n2)CC[C@H](NC(=O)c2sc4nc(C)ccc4c2N)C3)C[C@H]1C(F)F [Example 377, 3-amino-N-[(6S)-2-[(3R,4S)-3-(difluoromethyl)-4-(methylamino)pyrrolidin-1-yl]-5,6,7,8-tetrahydroquinolin-6-yl]-6-methylthieno[2,3-b]pyridine-2-carboxamide] | 0.05 to 0.2
2 | Cc1ccc2c(N)c(C(=O)N[C@H]3COc4nc(N5C[C@H](C(F)F)[C@@H](N)C5)ccc4C3)sc2n1 [Example 378, 3-amino-N-[(3R)-7-[(3R,4S)-3-amino-4-(difluoromethyl)pyrrolidin-1-yl]-2H,3H,4H-pyrano[2,3-b]pyridin-3-yl]-6-methylthieno[2,3-b]pyridine-2-carboxamide] | 0.05 to 0.2
3 | Cc1ccc2c(N)c(C(=O)N[C@H]3COc4nc(N5C[C@@H](N)[C@H](C(F)F)C5)ccc4C3)sc2n1 [Example 379, 3-amino-N-[(3R)-7-[(3S,4R)-3-amino-4-(difluoromethyl)pyrrolidin-1-yl]-2H,3H,4H-pyrano[2,3-b]pyridin-3-yl]-6-methylthieno[2,3-b]pyridine-2-carboxamide] | 0.2 to 2
4 | Cc1ccc2c(N)c(C(=O)N[C@H]3CCc4nc(N5C[C@H](C(F)F)[C@@H](N)C5)ncc4C3)sc2n1 [Example 380, 3-amino-N-[(6S)-2-[(3R,4S)-3-amino-4-(difluoromethyl)pyrrolidin-1-yl]-5,6,7,8-tetrahydroquinazolin-6-yl]-6-methylthieno[2,3-b]pyridine-2-carboxamide] | 0.05 to 0.2
5 | Cc1ccc2c(N)c(C(=O)N[C@H]3CCc4nc(N5C[C@@H](N)[C@H](C(F)F)C5)ncc4C3)sc2n1 [Example 381, 3-amino-N-[(6S)-2-[(3S,4R)-3-amino-4-(difluoromethyl)pyrrolidin-1-yl]-5,6,7,8-tetrahydroquinazolin-6-yl]-6-methylthieno[2,3-b]pyridine-2-carboxamide] | 0.2 to 2
6 | Cc1ccc2c(N)c(C(=O)N[C@@H]3CCc4nc(N5C[C@@H](N)[C@H](C(F)F)C5)ncc4C3)sc2n1 [Example 382, 3-amino-N-[(6R)-2-[(3S,4R)-3-amino-4-(difluoromethyl)pyrrolidin-1-yl]-5,6,7,8-tetrahydroquinazolin-6-yl]-6-methylthieno[2,3-b]pyridine-2-carboxamide] | 0.2 to 2
7 | Cc1ccc2c(N)c(C(=O)N[C@@H]3CCc4nc(N5C[C@H](C(F)F)[C@@H](N)C5)ncc4C3)sc2n1 [Example 383, 3-amino-N-[(6R)-2-[(3R,4S)-3-amino-4-(difluoromethyl)pyrrolidin-1-yl]-5,6,7,8-tetrahydroquinazolin-6-yl]-6-methylthieno[2,3-b]pyridine-2-carboxamide] | > 2
8 | Cc1ccc2c(N)c(C(=O)N[C@H]3CCc4nc(N5C[C@H](CF)[C@@H](N)C5)ccc4C3)sc2n1 [Example 384, 3-amino-N-[(6S)-2-[(3R,4S)-3-amino-4-(fluoromethyl)pyrrolidin-1-yl]-5,6,7,8-tetrahydroquinolin-6-yl]-6-methylthieno[2,3-b]pyridine-2-carboxamide] | 0.05 to 0.2
9 | Cc1ccc2c(N)c(C(=O)N[C@H]3CCc4nc(N5C[C@@H](CF)[C@H](N)C5)ccc4C3)sc2n1 [Example 385, 3-amino-N-[(6S)-2-[(3S,4R)-3-amino-4-(fluoromethyl)pyrrolidin-1-yl]-5,6,7,8-tetrahydroquinolin-6-yl]-6-methylthieno[2,3-b]pyridine-2-carboxamide] | 0.05 to 0.2
10 | Cc1ccc2c(N)c(C(=O)N[C@H]3CCc4nc(N5CC[C@](N)(CO)C5)ccc4C3)sc2n1 [Example 386, 3-amino-N-[(6S)-2-[(3R)-3-amino-3-(hydroxymethyl)pyrrolidin-1-yl]-5,6,7,8-tetrahydroquinolin-6-yl]-6-methylthieno[2,3-b]pyridine-2-carboxamide] | 0.05 to 0.2
11 | Cc1ccc2c(N)c(C(=O)N[C@H]3CCc4nc(N5CC[C@@](N)(CO)C5)ccc4C3)sc2n1 [Example 387, 3-amino-N-[(6S)-2-[(3S)-3-amino-3-(hydroxymethyl)pyrrolidin-1-yl]-5,6,7,8-tetrahydroquinolin-6-yl]-6-methylthieno[2,3-b]pyridine-2-carboxamide] | 0.05 to 0.2
12 | COC[C@@]1(N)CCN(c2ccc3c(n2)CC[C@H](NC(=O)c2sc4nc(C)ccc4c2N)C3)C1 [Example 388, 3-amino-N-[(6S)-2-[(3R)-3-amino-3-(methoxymethyl)pyrrolidin-1-yl]-5,6,7,8-tetrahydroquinolin-6-yl]-6-methylthieno[2,3-b]pyridine-2-carboxamide] | 0.05 to 0.2
13 | COC[C@]1(N)CCN(c2ccc3c(n2)CC[C@H](NC(=O)c2sc4nc(C)ccc4c2N)C3)C1 [Example 389, 3-amino-N-[(6S)-2-[(3S)-3-amino-3-(methoxymethyl)pyrrolidin-1-yl]-5,6,7,8-tetrahydroquinolin-6-yl]-6-methylthieno[2,3-b]pyridine-2-carboxamide] | 0.05 to 0.2
14 | Cc1ccc2c(N)c(C(=O)N[C@H]3CCc4nc(N5C[C@@H]6COC[C@]6(N)C5)ccc4C3)sc2n1 [Example 394, N-[(6S)-2-[(3aR,6aS)-3a-amino-hexahydro-1H-furo[3,4-c]pyrrol-5-yl]-5,6,7,8-tetrahydroquinolin-6-yl]-3-amino-6-methylthieno[2,3-b]pyridine-2-carboxamide] | 0.05 to 0.2
15 | Cc1ccc2c(N)c(C(=O)N[C@H]3CCc4nc(N5C[C@H]6COC[C@@]6(N)C5)ccc4C3)sc2n1 [Example 395, N-[(6S)-2-[(3aS,6aR)-3a-amino-hexahydro-1H-furo[3,4-c]pyrrol-5-yl]-5,6,7,8-tetrahydroquinolin-6-yl]-3-amino-6-methylthieno[2,3-b]pyridine-2-carboxamide] | 0.05 to 0.2
